Five molecules from ChEMBL document CHEMBL4825748, “Rapid Evaluation of Small Molecule Cellular Target Engagement with a Luminescent Thermal Shift Assay” (ACS Med Chem Lett, 2021) can be followed below.

Assay [1] relates to GTPase KRas (Homo sapiens), P01116 [G12C]. Briefly: Binding affinity to KRAS G12C mutant (unknown origin) by traditional Western blot CETSA analysis. In general terms: A western blot detects proteins with antibodies after separation by electrophoresis.
Assay [2] has the same test system. Briefly: Binding affinity to HiBiT-tagged KRAS G12C mutant in human NCI-H358 cells assessed as stabilization by measuring luminescence signal by BiTSA-ITDR assay. It is filed as cell-based.
For assay [3], the system named is Cellular tumor antigen p53 (Homo sapiens), P04637 [R273H]. Briefly: Binding affinity to HiBiT-tagged p53 R273H mutant in human MDA-MB-468 cells assessed as p53 refolding by measuring change in melting temperature at 25 to 100 uM by luminescence based BiTSA assay. It is filed as cell-based. To be noted: dose 25-100 µM.
The target in assay [4] is T1, 5'-AMP-activated protein kinase subunit beta-1 (Homo sapiens) (UniProt Q9Y478).
T1 sequence (whole entry): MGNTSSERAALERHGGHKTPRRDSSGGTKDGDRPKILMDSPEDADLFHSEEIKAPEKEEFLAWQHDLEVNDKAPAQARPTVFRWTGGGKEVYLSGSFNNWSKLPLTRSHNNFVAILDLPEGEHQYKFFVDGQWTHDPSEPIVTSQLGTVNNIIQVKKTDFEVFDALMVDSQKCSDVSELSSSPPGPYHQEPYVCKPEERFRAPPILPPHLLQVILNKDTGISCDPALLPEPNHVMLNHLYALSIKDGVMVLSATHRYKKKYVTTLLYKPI
Briefly: Binding affinity to HiBiT-tagged PRKAB1 (unknown origin) assessed as shift in melting/aggregation temperature by luminescence based BiTSA assay. Background: HiBiT is a short tag that completes a luciferase, so light tracks the accessible tagged protein.

Assay [5] has as its system Cellular tumor antigen p53 (Homo sapiens), P04637 [R273H]. Briefly: Binding affinity to HiBiT-tagged p53 R273H mutant in human MDA-MB-468 cells assessed as p53 refolding by measuring change in melting temperature at 2.5 to 10 uM by luminescence based BiTSA assay. The class given is cell-based. To be noted: dose 2.5-10 µM.
Assay [6] has as its target Mitogen-activated protein kinase 14 (Homo sapiens) (UniProt Q16539). The assay can be described thus: Binding affinity to HiBiT-tagged MAPK14 (unknown origin) assessed as shift in melting/aggregation temperature at 10 uM by luminescence based BiTSA assay.

Active and inactive are the calls of the source. The calls are words filed in the database; no cut-off is given here.

Chain of GTPase KRas (Homo sapiens), P01116 [G12C] (P01116 whole entry G12C): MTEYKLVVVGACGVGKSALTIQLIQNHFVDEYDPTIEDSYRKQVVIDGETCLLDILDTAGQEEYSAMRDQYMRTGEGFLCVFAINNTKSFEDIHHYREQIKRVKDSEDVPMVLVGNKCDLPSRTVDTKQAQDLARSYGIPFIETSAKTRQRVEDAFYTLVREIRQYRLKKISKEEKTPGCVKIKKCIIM
Chain of Mitogen-activated protein kinase 14 (Homo sapiens) (Q16539 whole entry): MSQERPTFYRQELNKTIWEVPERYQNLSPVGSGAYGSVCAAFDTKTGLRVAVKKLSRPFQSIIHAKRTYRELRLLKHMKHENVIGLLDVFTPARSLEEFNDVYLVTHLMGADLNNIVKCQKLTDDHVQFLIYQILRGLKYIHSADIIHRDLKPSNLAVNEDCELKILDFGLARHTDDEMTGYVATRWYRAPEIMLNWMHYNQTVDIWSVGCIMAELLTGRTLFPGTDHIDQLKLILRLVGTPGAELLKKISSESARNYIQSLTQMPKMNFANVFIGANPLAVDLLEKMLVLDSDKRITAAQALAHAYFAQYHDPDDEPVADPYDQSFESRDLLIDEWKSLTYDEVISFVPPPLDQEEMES

Regarding `C=CC(=O)N1CCN(c2ncnc3c(F)c(-c4c(O)cccc4F)c(Cl)cc23)CC1`, the result in assay [1] was Active. For the same molecule, in assay [2], the result was inactive.
For the molecule `COCC1(CO)C(=O)C2CCN1CC2` (stereo unspecified), in assay [3], the result was inactive.
On to `O[C@@H]1CO[C@H]2[C@@H]1OC[C@H]2Oc1nc2nc(-c3ccc(-c4ccccc4)cc3)c(Cl)cc2[nH]1`, for which the outcome in assay [4] was inactive.
As for `CN(C)CCCNc1nc(CN2CCN(C(c3ccc(Cl)cc3)c3ccc(Cl)cc3)CC2)nc2ccccc12`, the outcome in assay [5] was inactive.
Consider `Cn1c(NC[C@@H](N)Cc2ccccc2)nc(-c2ccncc2)c(-c2ccc3ccccc3c2)c1=O`, for which the Tm in assay [6] was 12.4 °C.
